Results taken from US9783536B2, “Nitrogen-containing heterocyclic compound or salt thereof” (FUJIFILM Corporation, priority 2013, dated 2017).
Where two headings read alike, the source gives them in different places.

What was measured:
[1] = target: T1, human PI3Kα protein (Homo sapiens, UniProt P42336); test: PI3Kα enzyme assay (ADP-Glo); format: biochemical; conditions: read-out: PI3Kα enzyme inhibitory activity
T1 construct: purchased Carna Biosciences, Inc; host or cells: baculovirus expression system
T1 sequence (P42336 whole entry): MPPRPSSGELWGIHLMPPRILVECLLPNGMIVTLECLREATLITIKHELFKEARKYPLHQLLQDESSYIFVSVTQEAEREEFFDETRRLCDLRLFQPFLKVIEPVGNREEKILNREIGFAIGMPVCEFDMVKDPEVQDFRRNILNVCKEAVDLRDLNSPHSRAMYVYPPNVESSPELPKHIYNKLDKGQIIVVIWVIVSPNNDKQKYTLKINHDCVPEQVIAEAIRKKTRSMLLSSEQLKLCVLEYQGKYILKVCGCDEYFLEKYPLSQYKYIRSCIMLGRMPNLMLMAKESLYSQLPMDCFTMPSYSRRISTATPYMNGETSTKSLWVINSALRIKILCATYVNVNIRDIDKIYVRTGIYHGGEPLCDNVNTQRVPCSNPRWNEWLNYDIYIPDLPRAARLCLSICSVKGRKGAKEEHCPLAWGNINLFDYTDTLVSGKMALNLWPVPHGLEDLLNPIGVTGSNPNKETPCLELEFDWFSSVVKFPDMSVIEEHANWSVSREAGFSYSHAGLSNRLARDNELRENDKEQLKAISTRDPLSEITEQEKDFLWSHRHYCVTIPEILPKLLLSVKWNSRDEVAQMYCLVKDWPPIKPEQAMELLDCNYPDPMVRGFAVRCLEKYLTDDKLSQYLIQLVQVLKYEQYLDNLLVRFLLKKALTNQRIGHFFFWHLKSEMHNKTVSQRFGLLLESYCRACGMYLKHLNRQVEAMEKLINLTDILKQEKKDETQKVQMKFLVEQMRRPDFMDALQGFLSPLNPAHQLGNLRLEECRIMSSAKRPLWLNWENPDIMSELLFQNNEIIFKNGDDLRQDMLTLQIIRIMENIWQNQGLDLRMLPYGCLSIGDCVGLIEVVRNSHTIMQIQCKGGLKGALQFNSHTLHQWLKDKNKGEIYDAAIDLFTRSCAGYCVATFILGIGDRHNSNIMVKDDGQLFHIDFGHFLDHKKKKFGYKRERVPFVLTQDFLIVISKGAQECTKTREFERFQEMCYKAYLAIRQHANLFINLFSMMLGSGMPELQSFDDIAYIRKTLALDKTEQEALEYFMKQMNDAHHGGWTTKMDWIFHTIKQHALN
T1 sequence (P27986 whole entry partner): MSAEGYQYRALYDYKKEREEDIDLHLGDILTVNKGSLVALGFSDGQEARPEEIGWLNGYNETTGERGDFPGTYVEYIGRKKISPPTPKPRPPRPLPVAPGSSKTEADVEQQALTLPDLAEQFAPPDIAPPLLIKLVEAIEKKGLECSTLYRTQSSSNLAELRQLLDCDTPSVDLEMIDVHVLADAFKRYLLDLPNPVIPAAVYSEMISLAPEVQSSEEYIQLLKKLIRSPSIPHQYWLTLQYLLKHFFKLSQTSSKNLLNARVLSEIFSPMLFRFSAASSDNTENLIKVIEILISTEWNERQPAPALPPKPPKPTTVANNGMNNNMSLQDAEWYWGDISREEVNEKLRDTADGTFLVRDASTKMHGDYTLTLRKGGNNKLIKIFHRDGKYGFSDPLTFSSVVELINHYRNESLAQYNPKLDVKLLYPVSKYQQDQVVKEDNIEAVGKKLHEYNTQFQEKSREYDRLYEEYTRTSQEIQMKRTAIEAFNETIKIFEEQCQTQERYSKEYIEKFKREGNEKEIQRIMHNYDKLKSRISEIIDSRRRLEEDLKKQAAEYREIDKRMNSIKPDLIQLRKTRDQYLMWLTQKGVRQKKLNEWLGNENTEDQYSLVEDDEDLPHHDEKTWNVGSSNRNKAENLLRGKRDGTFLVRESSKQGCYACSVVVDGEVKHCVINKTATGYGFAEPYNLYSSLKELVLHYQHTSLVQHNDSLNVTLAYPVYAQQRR
Outline: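 Biotinylated human PI3Kα (baculovirus-expressed, 4.5 nmol/L) pre-incubated 15 min with compound in Tris-HCl pH 7.5, MgCl2, BSA; reaction 60 min at 25° C with 50 μmol/L PIP2 and 100 μmol/L ATP final. ADP quantified by ADP-Glo luminescence; IC50 calculated.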

[2] = system: CHO-K1 cells; test: CHO cell toxicity test; format: cell-based, Chinese hamster; conditions: Cricetulus griseus, read-out: IC50 value (concentration at which the number of viable cells was suppressed to 50% or less)
Experimental: In a CHO cell toxicity test, the following was used.
Cell: CHO-K1 cells (derived from Chinese hamster ovary) Test medium: F-12 MEDIUM+FCS (manufactured by Biowest) having a final concentration of 2%
Detection reagent: CELLTITER-GLO™ LUMINESCENT CELL VIABILITY ASSAY (trade name, manufactured by PROMEGA Corporation)
The CHO-K1 cells were seeded in a 96-well microplate for culture at 5,000 cells/well, and cultured in a CO2 incubator (37° C.) for 24 hours. An evaluation compound (final concentration: from 25.00 μmol/L to 0.20 μmol/L, common ratio: […]) was added thereto, followed by culturing for 24 hours, and the number of viable cells was calculated from emission intensity by CELLTITER-GLO™ (trade name, manufactured by PROMEGA Corporation). In the measurement of the emission intensity, VARIOSKAN FLASH (manufactured by Thermo Fisher Scientific Inc.) was used.
Inhibition ratio (%)=100−(A/B)×100
A: Emission intensity in the presence of a test compound
B: Emission intensity in the absence of a test compound

[3] = target: T2, GST fusion human ERK2 protein (Homo sapiens, UniProt P28482); test: ERK2 enzyme assay (2); format: biochemical; conditions: ERK2 enzyme assay (2); read-out: ERK2 enzyme inhibitory activity (2)
T2 construct: purchased Carna Biosciences, Inc; host or cells: E. coli expression system
T2 sequence (P28482 whole entry, the tested form may be a part): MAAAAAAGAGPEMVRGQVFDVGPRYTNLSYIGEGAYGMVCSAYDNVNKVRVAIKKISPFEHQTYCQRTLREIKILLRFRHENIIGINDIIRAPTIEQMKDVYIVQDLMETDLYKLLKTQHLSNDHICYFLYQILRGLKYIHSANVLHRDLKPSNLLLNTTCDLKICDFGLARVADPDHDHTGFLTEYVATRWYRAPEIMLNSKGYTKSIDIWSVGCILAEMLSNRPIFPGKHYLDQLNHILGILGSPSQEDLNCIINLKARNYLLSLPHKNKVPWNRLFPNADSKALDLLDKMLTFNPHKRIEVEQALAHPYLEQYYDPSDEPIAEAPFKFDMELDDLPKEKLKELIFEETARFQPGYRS
Outline: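 GST-tagged human ERK2 expressed in E. coli (1.25 nmol/L) was preincubated with compound for 15 min at room temperature in pH 7.5 Hepes buffer with MgCl2, DTT and Brij35. Reaction with FL-Peptide 8 (final 4.25 μmol/L) and ATP (final 1 mmol/L) ran 120 min at 25 °C; EDTA stopped it, and phosphorylated peptide was quantified by mobility-shift separation to derive IC50.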

[4] = CHO-K1 cells, 24 hours culture with compound, CellTiter-Glo

Compound: CC(=O)NC1CN(CCCn2cc(-c3cnc4ccc(Nc5cc(C(C)C)cnn5)nc4c3)cn2)C1 [Example 0682, N-(1-(3-(4-(6-((5-isopropylpyridazin-3-yl)amino)-1,5-naphthyridin-3-yl)-1H-pyrazol-1-yl)propyl)azetidin-3-yl)acetamide]
- IC50 [1]: < 1000 nM
- IC50 [2, 4]: ≥ 25000 nM
- IC50 [3]: < 1000 nM

Compound: CC(C)c1cnnc(Nc2ccc3ncc(-n4ccnc4)cc3n2)c1 [Example 0510, 7-(1H-imidazol-1-yl)-N-(5-isopropylpyridazin-3-yl)-1,5-naphthyridine-2-amine]
- IC50 [1]: 1000 to 10000 nM
- IC50 [2, 4]: ≥ 25000 nM
- IC50 [3]: < 1000 nM

Compound: CC(C)c1cnnc(Nc2ccc3ncc(-c4cn(C)nc4-c4cncs4)cc3n2)c1 [Example 0583]
- IC50 [1]: < 1000 nM
- IC50 ([2]; CHO-K1, 24 h): ≥ 25000 nM
- IC50 [3]: < 1000 nM

Compound: CC(C)c1cnnc(Nc2ccc3ncc(-c4cnn(CCCN5CC6(COC6)C5)c4)cc3n2)c1 [Example 0613]
- IC50 [1]: < 1000 nM
- IC50 [2, 4]: ≥ 25000 nM
- IC50 [3]: < 1000 nM

Compound: CC(C)c1cnnc(Nc2ccc3ncc(-c4cnn(CC(O)CN5CCCC5)c4)cc3n2)c1 (stereo not drawn) [Example 0724, 1-(4-(6-((5-Isopropylpyridazin-3-yl)amino)-1,5-naphthyridin-3-yl)-1H-pyrazol-1-yl)-3-(pyrrolidin-1-yl)propan-2-ol]
- IC50 [1]: < 1000 nM
- IC50 [2, 4]: ≥ 25000 nM
- IC50 [3]: < 1000 nM

Compound: CC(C)c1cnnc(Nc2ccc3ncc(-c4cnn(CCCN5CCN(C)C(=O)C5)c4)cc3n2)c1 [Example 0723, 4-(3-(4-(6-((5-isopropylpyridazin-3-yl)amino)-1,5-naphthyridin-3-yl)-1H-pyrazol-1-yl)propyl)-1-methylpiperazin-2-one]
- IC50 [1]: < 1000 nM
- IC50 [2, 4]: ≥ 25000 nM
- IC50 [3]: < 1000 nM

Compound: CC(C)c1cnnc(Nc2ccc3ncc(-c4c[nH]nc4-c4cccnc4)cc3n2)c1 [Example 0545]
- IC50 [1]: < 1000 nM
- IC50 [2, 4]: ≥ 25000 nM
- IC50 [3]: < 1000 nM

Compound: CC(C)c1cnnc(Nc2ccc3ncc(-c4cnn(CCCN5CC(C#N)C5)c4)cc3n2)c1 [Example 0686]
- IC50 [1]: < 1000 nM
- IC50 [2, 4]: ≥ 25000 nM
- IC50 [3]: < 1000 nM

Compound: CC(C)c1cnnc(Nc2ccc3ncc(-c4cnn(CCCN5CC(O)C5)c4)cc3n2)c1 [Example 0629]
- IC50 [1]: < 1000 nM
- IC50 [2, 4]: ≥ 25000 nM
- IC50 [3]: < 1000 nM

Compound: CC(C)c1cnnc(Nc2ccc3ncc(-c4cnn(C5CN(C)C5)c4)cc3n2)c1 [Example 0490]
- IC50 [1]: < 1000 nM
- IC50 [2, 4]: ≥ 25000 nM
- IC50 [3]: < 1000 nM

Compound: CC(C)c1cnnc(Nc2ccc3ncc(-c4cnn(CCCN5C[C@@H](C)N[C@@H](C)C5)c4)cc3n2)c1 [Example 0439, 7-(1-(3-((3S,5R)-3,5-dimethylpiperazin-1-yl)propyl)-1H-pyrazol-4-yl)-N-(5-isopropylpyridazin-3-yl)-1,5-naphthyridine-2-amine]
- IC50 [1]: < 1000 nM
- IC50 [2, 4]: ≥ 25000 nM
- IC50 [3]: < 1000 nM

Compound: CC(C)c1cnnc(Nc2ccc3ncc(-c4cnn(CCCN5C[C@@H](C)O[C@H](C)C5)c4)cc3n2)c1 [Example 0614]
- IC50 [1]: < 1000 nM
- IC50 [2, 4]: ≥ 25000 nM
- IC50 [3]: < 1000 nM

Compound: CC(C)c1cnnc(Nc2ccc3ncc(-c4cnn(CCCN5CCO[C@H](C)C5)c4)cc3n2)c1 [Example 0645]
- IC50 [1]: < 1000 nM
- IC50 [2, 4]: ≥ 25000 nM
- IC50 [3]: < 1000 nM

Compound: FC(F)(F)Cn1cc(-c2cnc3ccc(Nc4cc(C5CC5)cnn4)nc3c2)cn1 [Example 0465, N-(5-cyclopropylpyridazin-3-yl)-7-(1-(2,2,2-trifluoroethyl)-1H-pyrazol-4-yl)-1,5-naphthyridine-2-amine]
- IC50 [1]: < 1000 nM
- IC50 [2, 4]: ≥ 25000 nM
- IC50 [3]: < 1000 nM

Compound: CC(C)c1cnnc(Nc2ccc3ncc(-c4cnn(CCCN5CCSCC5)c4)cc3n2)c1 [Example 0420]
- IC50 [1]: < 1000 nM
- IC50 [2, 4]: ≥ 25000 nM
- IC50 [3]: < 1000 nM

Compound: CC(C)c1cnnc(Nc2ccc3ncc(-c4cnn(CCCN5C[C@@H](C)O[C@@H](C)C5)c4)cc3n2)c1 [Example 0615]
- IC50 [1]: < 1000 nM
- IC50 [2, 4]: ≥ 25000 nM
- IC50 [3]: < 1000 nM

Compound: COCCN(C)CCCn1cc(-c2cnc3ccc(Nc4cc(C(C)C)cnn4)nc3c2)cn1 [Example 0659]
- IC50 [1]: < 1000 nM
- IC50 [2, 4]: ≥ 25000 nM
- IC50 [3]: < 1000 nM

Compound: CC(C)c1cnnc(Nc2ccc3ncc(-c4cn(C)nc4CC4CCOCC4)cc3n2)c1 [Example 0773]
- IC50 [1]: < 1000 nM
- IC50 [2, 4]: ≥ 25000 nM
- IC50 [3]: < 1000 nM

Compound: CCc1nn(C)cc1-c1cnc2ccc(Nc3cc(C(C)C)cnn3)nc2c1 [Example 0761]
- IC50 [1]: < 1000 nM
- IC50 [2, 4]: ≥ 25000 nM
- IC50 [3]: < 1000 nM

Compound: CC(C)c1cnnc(Nc2ccc3ncc(-c4cnn(CC5CCN(S(C)(=O)=O)CC5)c4)cc3n2)c1 [Example 0530]
- IC50 [1]: < 1000 nM
- IC50 [2, 4]: ≥ 25000 nM
- IC50 [3]: < 1000 nM

Compound: CC(=O)N1CC(n2cc(-c3cnc4ccc(Nc5cc(C(C)C)cnn5)nc4c3)cn2)C1 [Example 0443]
- IC50 [1]: < 1000 nM
- IC50 [2, 4]: ≥ 25000 nM
- IC50 [3]: < 1000 nM

Compound: CC(C)c1cnnc(Nc2ccc3ncc(-c4cnn(CCCN5CC(C(=O)N(C)C)C5)c4)cc3n2)c1 [Example 0688]
- IC50 [1]: < 1000 nM
- IC50 [2, 4]: ≥ 25000 nM
- IC50 [3]: < 1000 nM

Compound: CC(C)c1cnnc(Nc2ccc3ncc(-c4cn(C)nc4-c4ccncc4)cc3n2)c1 [Example 0552]
- IC50 [1]: < 1000 nM
- IC50 [2, 4]: ≥ 25000 nM
- IC50 [3]: < 1000 nM

Compound: CC(C)c1cnnc(Nc2ccc3ncc(-c4cnn(CCCN5CCOC(CO)C5)c4)cc3n2)c1 (stereo not drawn) [Example 0678]
- IC50 [1]: < 1000 nM
- IC50 [2, 4]: ≥ 25000 nM
- IC50 [3]: < 1000 nM

Compound: COC(CN1CCCC1)Cn1cc(-c2cnc3ccc(Nc4cc(C(C)C)cnn4)nc3c2)cn1 (stereo not drawn) [Example 0725, N-(5-isopropylpyridazin-3-yl)-7-(1-(2-methoxy-3-(pyrrolidin-1-yl)propyl)-1H-pyrazol-4-yl)-1,5-naphthyridine-2-amine]
- IC50 [1]: < 1000 nM
- IC50 [2, 4]: ≥ 25000 nM
- IC50 [3]: < 1000 nM

Compound: CC(=O)c1ccc(Cn2cc(-c3cnc4ccc(Nc5cc(C(C)C)cnn5)nc4c3)cn2)cc1 [Example 0795]
- IC50 [1]: < 1000 nM
- IC50 [2, 4]: ≥ 25000 nM
- IC50 [3]: < 1000 nM

Compound: CC(C)c1cnnc(Nc2ccc3ncc(-c4cnn([C@@H]5CCN(C)C5)c4)cc3n2)c1 [Example 0493]
- IC50 [1]: < 1000 nM
- IC50 [2, 4]: ≥ 25000 nM
- IC50 [3]: < 1000 nM

Compound: CC(C)c1cnnc(Nc2ccc3ncc(-c4cnn(CC5CCN(C)CC5)c4)cc3n2)c1 [Example 0486, N-(5-isopropylpyridazin-3-yl)-7-(1-((1-methylpiperidin-4-yl)methyl)-1H-pyrazol-4-yl)-1,5-naphthyridine-2-amine]
- IC50 [1]: < 1000 nM
- IC50 [2, 4]: ≥ 25000 nM
- IC50 [3]: < 1000 nM

Compound: Cn1cc(-c2cnc3ccc(Nc4cc(C5CCCC5)cnn4)nc3c2)c(CF)n1 [Example 0631, N-(5-cyclopentylpyridazin-3-yl)-7-(3-(fluoromethyl)-1-methyl-1H-pyrazol-4-yl)-1,5-naphthyridine-2-amine]
- IC50 [1]: < 1000 nM
- IC50 [2, 4]: ≥ 25000 nM
- IC50 [3]: < 1000 nM

Compound: CC(C)c1cnnc(Nc2ccc3ncc(-c4cnn(Cc5cocn5)c4)cc3n2)c1 [Example 0450]
- IC50 [1]: < 1000 nM
- IC50 [2, 4]: ≥ 25000 nM
- IC50 [3]: < 1000 nM

Compound: CC(C)c1cnnc(Nc2ccc3ncc(-c4cn(C)nc4C(F)F)cc3n2)c1 [Example 0635]
- IC50 [1]: < 1000 nM
- IC50 [2, 4]: ≥ 25000 nM
- IC50 [3]: < 1000 nM

Compound: CC(C)c1cnnc(Nc2ccc3ncc(-c4cn(C)nc4-c4ccc(C#N)nc4)cc3n2)c1 [Example 0455]
- IC50 [1]: < 1000 nM
- IC50 [2, 4]: ≥ 25000 nM
- IC50 [3]: < 1000 nM

Compound: CC(C)c1cnnc(Nc2ccc3ncc(-c4cnn(C5CCN(S(C)(=O)=O)CC5)c4)cc3n2)c1 [Example 0479]
- IC50 [1]: < 1000 nM
- IC50 [2, 4]: ≥ 25000 nM
- IC50 [3]: < 1000 nM

Compound: CC(C)c1cnnc(Nc2ccc3ncc(-c4cnn(Cc5ccc(N6CCOCC6)nc5)c4)cc3n2)c1 [Example 0462, N-(5-isopropylpyridazin-3-yl)-7-(1-((6-morpholinopyridin-3-yl)methyl)-1H-pyrazol-4-yl)-1,5-naphthyridine-2-amine]
- IC50 [1]: < 1000 nM
- IC50 [2, 4]: ≥ 25000 nM
- IC50 [3]: < 1000 nM

Compound: COCC1COCCN1CCCn1cc(-c2cnc3ccc(Nc4cc(C(C)C)cnn4)nc3c2)cn1 (stereo not drawn) [Example 0691]
- IC50 [1]: < 1000 nM
- IC50 [2, 4]: ≥ 25000 nM
- IC50 [3]: < 1000 nM

Compound: CC(C)c1cnnc(Nc2ccc3ncc(-c4cnn(CC(=O)N(C)C)c4)cc3n2)c1 [Example 0549, 2-(4-(6-((5-Isopropylpyridazin-3-yl)amino)-1,5-naphthyridin-3-yl)-1H-pyrazol-1-yl)-N,N-dimethylacetamide]
- IC50 [1]: < 1000 nM
- IC50 [2, 4]: ≥ 25000 nM
- IC50 [3]: < 1000 nM
